Source: patent publication US8415321B2, “Nucleoside derivatives for treatment of Caliciviridae infections, including Norovirus infections” (priority 2008, dated 2013)

Test system: Norwalk GI.1 replicon
Assay: Norwalk GI.1 replicon assay (in vitro anti-viral activity)
Assay type: cell-based
Conditions: Norovirus
From the text: The Norwalk GI.1 strain (Chang, K. O., et al. (2006) Virology 353:463-473), the GII-4 strain replicon, as well other Norovirus replicons can be used in assays to determine the in vitro antiviral activity of the compounds described herein, or other compounds or compound libraries. In some embodiments, the replicon systems are subgenomic and therefore allow evaluation of small molecule inhibitors of non-structural proteins. This can provide the same benefits to Norovirus drug discovery that Hepatitis C replicons contributed to the discovery of therapeutics useful for treatment of that virus (Stuyver, L. J., et al. (2006) Antimicrob. Agents Chemother. 47:244-254).

`CC1(O)C(O)[C@@H](CO)O[C@H]1n1ccc(N)nc1=O` (some centres unmarked) [2′-C-methyl-cytosine] was tested, and the EC50 was 2100 nM and the EC90 was 8.9 µM.
